# Test results: patent publication US5885961A, “Methods of using epithelins to modulate cell proliferation” (Bristol-Myers Squibb Company, priority 1995, dated 1999)
# Entries after “also recorded” stand apart in the source; their conditions may differ.
# What was measured:
# [1] = system: A431 human epidermoid carcinoma cells; test: Cell growth inhibitory activity (GIA), 125I-deoxyuridine incorporation into DNA; type: cell-based
# Procedure: The cell growth inhibitory activity (GIA) assays were performed in flat-bottom 96 well plates (Falcon 3072). Human epidermoid carcinoma of vulva cells (A431) were used as test cells for GIA. 3.5×10^3 cells in 50 μl of test medium (DMEM supplemented with 5% heat inactivated fetal bovine serum (FBS), penicillin/streptomycin (PS) and glutamine) were placed in all wells except peripheral wells. The peripheral wells received 50 μl PBS. Three hours later, 50 μl of test sample in test medium was added to each well, while control wells received only 50 μl of test medium. Three wells were used for each concentration of test sample. Plates were incubated at 37° C. for 2-3 days. Then, 100 μl of a solution of […] (^125 I-IUdR, 4Ci/mg-0.5 mCi/ml, 2 μl/ml in test medium) was added to each well and plates were incubated at 37° C. After 4-6 hours, the medium was aspirated from the wells, which were then washed once with 200 μl PBS. Then, 200 μl methanol was added to each well, plates were incubated for 10 minutes at room temperature, and the methanol was removed by aspiration. 200 μl of 1M sodium hydroxide was added to each well, the plates were incubated for 30 minutes at 37° C. Sodium hydroxide was removed with titertek plugs (Flow Labs). The plugs were transferred into 12×75 mm plastic tubes and counted in a gamma counter to quantify ^125 I-IUdR incorporation.
# [2] = system: human colon carcinoma cell line HCT 116; test: 125I-deoxyuridine incorporation into DNA, HCT 116; type: cell-based; settings: maximum dose tested: 20 ng/ml epithelin 1, 270 ng/ml epithelin 2
# Balb/MK cells [3] = test: Growth stimulatory activity (GSA), 125I-deoxyuridine incorporation into DNA of murine keratinocytes; type: cell-based
# Procedure: FIG. 15(A-B). (FIG. 15A) Effect of epithelin 1 and epithelin 2 on the stimulation of ^125 I-deoxyuridine incorporation into DNA of the murine keratinocyte cell line Balb/MK. 2,000-4,000 cells were plated per well in 96 well plates in low-calcium medium containing 5% dialyzed FBS. Then GSA assays were performed as described in Section 6.2., infra. .circle-solid., epithelin 1; o, epithelin 2. (FIG. 15B) Effect of various concentrations of epithelin 2 on epithelin 1 (20 ng/ml) elicited incorporation of ^125 I-deoxyuridine into DNA of Balb/MK cells.
# Balb/MK cells were also used as indicator cells in 96 well plates to assess the growth inhibitory activity (GIA) or growth stimulatory activity (GSA) of a test material using ^125 I-deoxyuridine incorporation into DNA as described in the previous section.
# [4] = system: human fibroblasts and several other human tumor cells; test: 125I-deoxyuridine incorporation into DNA, human fibroblasts and other human tumor cells; type: cell-based; settings: maximum dose tested: 20 ng/ml epithelin 1, 270 ng/ml epithelin 2
# NRK cells = test: Mitogenic activity on NRK cells in monolayer; type: cell-based, rat
# [5] = Resistance of bioactivity to chemical, heat and enzyme treatment; type: physicochemical
# Procedure: Epithelin 1 and epithelin 2 are resistant to treatment with 1M acetic acid, 1M ammonium hydroxide, 6M urea, 0.01M sodium metaperiodate, to heating at 56° C. for 30 minutes, and to treatment with various glycosidases or lipases. However, epithelin activity was sensitive to reduction, to reduction and 4-vinylpyridine treatment, and to digestion with proteinases such as trypsin, endoproteinase Lys-C, and endoproteinase Glu-C (V8).
# Balb/MK cells [6] = test: Murine keratinocyte growth assay (cell count); type: cell-based; settings: for effect on growth of Balb/MK cells (rodent keratinocytes): FIG. 16A
# Procedure: FIG. 16(A-B). (FIG. 16A) Effect of epithelin 1 and epidermal growth factor (EGF) on the growth of Balb/MK cells. Assays were performed as described in Section 6.2., infra. .circle-solid., epithelin 1; o, EGF (FIG. 16B) Effect of various concentrations of epithelin 2 on the epithelin 1 (20 ng/ml) induced growth of murine keratinocytes.
# Balb/MK cells were plated at 1×10^4 cells per well in 1 ml of low calcium medium (Weissman and Aaronson, 1983, Cell 32:599-606; Carpenter and Zendegut, 1985, Anal. Biochem. 153:279-282) in 24-well Costar plates and incubated at 37° C. for 4-6 hours. Then media were removed and replaced with 1 ml of medium containing various concentrations of the test compound in triplicate. The control wells received only medium without any test material. The plates were incubated at 37° C. for 4 days, then medium was removed, wells were rinsed two times with 1 ml of phosphate-buffered saline, and the cells were detached with trypsin-EDTA and counted.
# mink lung CCL 64 cells = test: 125I-deoxyuridine incorporation into DNA, CCL 64; type: cell-based
# NRK-SA6 cells [7] = test: Soft agar colony assay in the presence of TGFβ; type: cell-based, rat
# Procedure: FIG. 17. Effect of epithelin 1 and 2 on NRK-SA6 cell colony formation in soft agar in the presence of TFGβ (1 ng/ml). The colony formation assay used is described in Section 6.2.3, infra. Solid bars, epithelin 1; stippled bar, epidermal growth factor; open bar, epithelin 2; hatched bar, 20 ng/ml epithelin 1 plus 500 ng/ml epithelin 2.
# A 0.38 ml base layer of 0.5% agar (Agar Noble; Difco Laboratories, Detroit, Mich.) in DMEM containing 10% heat inactivated FBS was added to 24 well Costar tissue culture plates. 0.38 ml of 0.3% agar containing the same medium-FBS mixture, 6-12×10^3 test cells, and the test proteins at various concentrations were overlaid on the basal layer of agar. The plates were incubated at 37° C. in a humidified atmosphere of 5% CO2 in air. Colonies were enumerated unfixed and unstained, and the number of colonies was scored between days 7 and 10. Colonies were defined as a cluster of at least eight cells.
# EGF receptors = EGF receptors (Homo sapiens, UniProt P00533); test: Binding of 125I-EGF to its receptors
# monkey kidney COS1 cells = test: 125I-deoxyuridine incorporation into DNA, COS1; type: cell-based
# NRK-SA6 cells [8] = settings: in the presence of TGFβ; Roberts et al., 1981; cited from earlier work
Substance,"50% inhibition of DNA synthesis (125I-deoxyuridine incorporation) ([1]; A431 cells, purified protein, FIG. 14) [ng/well]","IC50 ([1]; A431 cells, read-out: concentration for 50% inhibition of 125I-deoxyuridine incorporation) [nM]",Specific Activity ([1]; final purification step Anal TSK-250 (Table III)),specific activity of purified protein (GIA) ([1]; one unit = amount inhibiting 125I-deoxyuridine incorporation into A431 cells by 50%),effect on growth of HCT 116 cells [2],"IC50 (Balb/MK cells [3]; Balb/MK cells, epithelin 1 20 ng/ml, FIG. 15B, read-out: 50% inhibition of epithelin 1 elicited 125I-deoxyuridine incorporation) [nM]",effect on 125I-deoxyuridine incorporation into DNA of Balb/MK cells (Balb/MK cells [3]; FIG. 15A),effect on human fibroblasts and several other human tumor cells [4],mitogenic activity on NRK cells in monolayer (NRK cells),"resistance to 1M acetic acid, 1M ammonium hydroxide, 6M urea, 0.01M sodium metaperiodate, heating at 56° C. for 30 minutes, glycosidases or lipases [5]","sensitivity of activity to reduction, reduction and 4-vinylpyridine treatment, and proteinases (trypsin, Lys-C, Glu-C) [5]",effect on growth of Balb/MK cells (rodent keratinocytes) (Balb/MK cells [6]),"IC50 (Balb/MK cells [6]; epithelin 1 20 ng/ml, FIG. 16B, read-out: 50% inhibition of epithelin 1-induced growth of Balb/MK cells) [nM]",effect on 125I-deoxyuridine incorporation into DNA (mink lung CCL 64 cells),"inhibition of epithelin 1-induced colony formation in soft agar (NRK-SA6 cells [7]; epithelin 2 at ~85 nM, epithelin 1 20 ng/ml)","anchorage-independent growth (colony formation in soft agar) of NRK cells (NRK-SA6 cells [7]; in the presence of TGFβ 1 ng/ml, FIG. 17)",effect on binding of 125I-EGF to its receptors (EGF receptors),effect on 125I-deoxyuridine incorporation into DNA (monkey kidney COS1 cells),anchorage-independent growth of rat kidney cells NRK-SA6 (NRK-SA6 cells [8])
"epithelin 2: single chain polypeptide of 57 amino acid residues, 12 cysteines, purified from rat kidney; antagonizes epithelin 1 growth stimulation (VVCPDAKTQCPDDSTCCELPTGKYGCCPMPNAICCSDHLHCCPQDTVCDLIQSKCIS)",450,~750,"3,810 Units/mg",3.8×10^3 units/mg protein,did not show any effect,~21,did not show any significant effect,Neither protein exhibited any significant effect,not,stable; also recorded: resistant,sensitive,did not exhibit any significant effect; also recorded: no effect,~7,significantly inhibited,about 50%,did not; also recorded: no effect,Neither epithelin 1 nor epithelin 2 significantly affected the binding,significantly inhibited,–
"EGF: epidermal growth factor, comparison growth factor (NSDSECPLSHDGYCLHDGVCMYIEALDKYACNCVVGYIGERCQYRDLKWWELR; UniProt P01133 971-1023, looked up) [reference compound]",–,–,–,–,–,–,–,–,–,–,–,did not proliferate in the absence of EGF or epithelin 1,–,–,–,–,–,–,induces anchorage-independent growth
TGFα: transforming growth factor-α,–,–,–,–,–,–,–,–,–,–,–,–,–,–,–,–,–,–,induces anchorage-independent growth
